Source: US11382904B2, “Therapeutic drug for diseases related to endoplasmic reticulum cell death in corneal endothelium” (KYOTO PREFECTURAL PUBLIC UNIVERSITY CORPORATION, priority 2013, dated 2022)
“Also recorded” adds a separate entry of the source.

Legend:
[1] = test system: corneal endothelial cells with Fuchs' endothelial corneal dystrophy (iFECD); assay: Annexin V positive apoptosis cells by flow cytometry, iFECD; format: cell-based, human; settings: for TGFβ2-induced increase of annexin V positive apoptotic cells, effect of inhibitor: TGFβ2 plus inhibitor, 24 hours
Method: (§1) The human corneal endothelial cells (iHCEC) or corneal endothelial cells with Fuchs' endothelial corneal dystrophy (iFECD) prepared in the Preparation Examples were seeded on a culture dish coated with FNC Coating Mix and culture for about 3 days until reaching sub-confluence under the condition of 5% CO2 at 37° C. Furthermore, TGFβ2 and SB431542 were added and the cells were incubated for 24 hours under the condition of 5% CO2 at 37° C. Cells were peeled off with ACCUMAX. Annexin V or PI positive cells were measured by using Annexin V and PI and a flow cytometer (FACS Aria II (BD Biosciences, Franklin Lakes, N.J.)) with MEBCYTO Apoptosis Kit (Annexin V-FITC Kit) 100 test (4700, MEDICAL & BIOLOGICAL LABORATORIES).
The human corneal endothelial cells (iHCEC) or corneal endothelial cells with Fuchs' endothelial corneal dystrophy (iFECD) prepared in the Preparation Examples were seeded on a culture dish coated with FNC Coating Mix and culture for about 3 days until reaching sub-confluence under the condition of 5% CO2 at 37° C. Furthermore, TGFβ2, SB431542 and TGFβ signal inhibitor A-83-01 (Wako, Osaka; catalog No: 018-22521), ALK5 inhibitor (Wako catalog No: 012-23021; CAS No. 446859-33-2; 2-(3-(6-methylpyridine-2-yl)-1H-pyrazole-4-yl)-1,5-naphthyridine) were added and the cells were incubated for 24 hours under the condition of 5% CO2 at 37° C. The cells were peeled off with ACCUMAX. Annexin V or PI positive cells were measured by using annexin V and propidium iodide (PI) with a flow cytometer (FACS Aria II (BD Biosciences, Franklin Lakes, N.J.)).

[2] = test system: corneal endothelial cells with Fuchs' endothelial corneal dystrophy (iFECD); format: cell-based, human
Method: The human corneal endothelial cells (iHCEC) or corneal endothelial cells with Fuchs' endothelial corneal dystrophy (iFECD) prepared in the Preparation Examples were seeded on a culture dish coated with FNC Coating Mix and cultured for about 3 days until reaching sub-confluence under the condition of 5% CO2 at 37° C. Furthermore, TGFβ2, SB431542 and TG were added and the cells were incubated for 24 hours under the condition of 5% CO2 at 37° C. Cell morphology and apoptosis were then observed under a phase difference microscope.

[3] = test system: iHCEC and iFECD; assay: Western blot of ER stress markers after TGFβ2 stimulation; format: cell-based, human
Method: Western blot: Electrophoresis was applied to a protein extracted and obtained in a RIPA buffer with 7.5% polyacrylamide. The isolated protein was transferred onto a PVDF membrane (PALL LIFE SCIENCE (catalog number: EH-2222)). A Tris buffered saline (10 mM Tris-HCl, pH 7.4; 100 mM NaCl) (TBS-T) comprising 0.1% (vol/vol) polyethylene sorbitan monolaurate (Nacalai Tesque, catalog number: 28353-85) complemented with 5% NON FAT DRY MILK (CELL SIGNALING, catalog number: 9999) and a blotted membrane were incubated for 1 hour for a blocking operation. The membrane was immersed in anti-GRP78 antibodies diluted 1000 fold with TBS-T complemented with 5% NON FAT DRY MILK and reacted for 1 hour at room temperature. After washing three times with TBS-T and incubating with a mouse-IgG antibody HRP complex (CELL SIGNALING (catalog number: 7074P2)) and washing, a band illuminated with an ECL-ADVAVCE Western Blotting Detection Kit (GE Healthcare Japan (catalog number: RPN2135V)) was detected.
Cells were stimulated for 24 hours with 10 ng/ml TGFβ2 (R&D SYSTEMS). Further, cells stimulated for 24 hours with 10 μM of thapsigargin (TG; Alomone Laboratories Ltd., Jerusalem, Israel) were used as a positive control of ER stress.
Cells were stimulated with 10 ng/ml TGFβ2 (R&D SYSTEMS). Further, cells stimulated with thapsigargin (TG; Alomone Laboratories Ltd., Jerusalem, Israel) were used as a positive control of ER stress.
In the present Example, a Western blot was performed as in Example 2 to investigate the expression of the molecular chaperone GRP78 and CHOP involved with apoptosis due to an ER stress response in order to confirm that a stronger ER stress is elicited by TGF-β in Fuchs' endothelial corneal dystrophy. Further, expression of phosphorylated PERK and ATF6 involved in stress signaling on an endoplasmic reticulum membrane was also examined therewith. A stimulation was applied with 10 ng/ml of TGFβ2 (R&D SYSTEMS). The chronological change was also examined therewith.

[4] = test system: human corneal endothelial cells (iHCEC); assay: Annexin V positive apoptosis cells by flow cytometry, iHCEC; format: cell-based; settings: after TGFβ stimulation (11.1±0.6% before stimulation)
Method: Further, it is known as the knowledge of the inventors that PERK phosphorylation and ATF6 cleavage were increased more in iFECD than in iHCEC by TGFβ. In order to investigate the involvement of TGFβ signaling in apoptosis, cells were treated with TGFβ and annexin V positive apoptosis cells were assessed by flow cytometry. […] Meanwhile, it is known that TGFβ increases annexin V positive cells after a stimulation in iFECD relative to the number prior to a TGFβ stimulation (as exemplary data, 19.4±1.4% prior to stimulation and 29.9±1.5% after stimulation, p<0.01). In addition thereto, it is shown that expression of the chaperone GRP78 is elevated. Further, it is shown that the expression of CHOP is elevated and apoptosis is induced by ER stress. […]
as §1, with “Furthermore, TGFβ2 and SB431542 were added and the cells were incubated for 24 hours under the condition of 5% CO2 at 37° C. Cells were peeled off with ACCUMAX.” left out

[5] = test system: corneal endothelial cells with Fuchs' endothelial corneal dystrophy (iFECD); assay: Aggresome measurement by flow cytometry (ProteoStat Aggresome Detection Kit); format: cell-based, human; settings: TGFβ2 10 ng/ml, 24 hours
Method: 1×10^5 human corneal endothelial cells (iHCEC) or corneal endothelial cells with Fuchs' endothelial corneal dystrophy (iFECD) were seeded onto a 6 well plate coated with an FNC Coating Mix and cultured for about 2 days until reaching sub-confluence under the condition of 5% CO2 at 37° C. Furthermore, TGFβ2 (10 ng/ml; R&D SYSTEMS) was added and the cells were incubated for 24 hours under the condition of 5% CO2 at 37° C. The cells were then peeled off with ACCUMAX™ (Funakoshi), and aggresomes were measured with a flow cytometer (FACS Aria II (BD Biosciences, Franklin Lakes, N.J.) by using a ProteoStat® Aggresome Detection Kit: (EZN-51035-K100, Enabling Discovery in Life Science®).

[6] = test system: iHCEC; assay: Western blot of apoptosis associated proteins after staurosporine stimulation; format: cell-based, human; settings: 15 minutes to 4 hours after staurosporine stimulation
Method: Caspase 9, caspase 3 and poly(ADP-ribose) polymerase (PARP) were assessed by Western blot in iHCEC stimulated with a mitochondrial stress stimulant staurosporine (abcam, ab120056) in order to assess the involvement of mitochondrial failure in apoptosis.
A stimulation was applied with staurosporine to induce a mitochondrial disorder to examine the chronological change.
Western blot was performed in accordance with the descriptions in Example 2. The following antibodies were used in addition to those used in Example 2.

[7] = 10 ng/ml TGFβ2, 3 and 6 hours, more significant in iFECD than iHCEC

Compound: Cc1cccc(-c2n[nH]cc2-c2ccc3ncccc3n2)n1 [ALK5 inhibitor, 2-(3-(6-methylpyridine-2-yl)-1H-pyrazole-4-yl)-1,5-naphthyridine]
- TGFβ2-induced increase of annexin V positive apoptotic cells, effect of inhibitor [1]: suppress apoptotic cells

Compound: Cc1cccc(-c2nn(C(=S)Nc3ccccc3)cc2-c2ccnc3ccccc23)n1 [A-83-01, 3-(6-methyl-2-pyridinyl)-N-phenyl-4-(4-quinolinyl)-1H-pyrazole-1-carbothioamide]
- TGFβ2-induced increase of annexin V positive apoptotic cells, effect of inhibitor [1]: suppress apoptotic cells

Compound: NC(=O)c1ccc(-c2nc(-c3ccc4c(c3)OCO4)c(-c3ccccn3)[nH]2)cc1 [SB431542, 4-[4-(1,3-benzodioxole-5-yl)-5-(2-pyridinyl)-1H-imidazole-2-yl]benzamide]
- TGFβ2-induced increase of annexin V positive apoptotic cells, effect of inhibitor [1]: cancelled; also recorded: suppresses apoptosis
- floating cells induced by TG (thapsigargin), effect of inhibitor ([2]; iFECD, TG stimulation, 24 hours): not cancelled
- floating cells (cell damage) induced by TGFβ2, effect of inhibitor ([2]; iFECD, TGFβ2 stimulation, 24 hours): cancelled

Compound: TGFβ2: transforming growth factor-β2 (R&D SYSTEMS) used to stimulate cells at 10 ng/ml
- expression of CHOP ([3]; 10 ng/ml TGFβ2, 3 and 6 hours): increases
- expression of the chaperone GRP78 ([3]; 10 ng/ml TGFβ2, 3 and 6 hours): increases
- expression of ATF6 [3, 7]: promotes expression
- phosphorylation of PERK (ER stress sensor) [3, 7]: promotes phosphorylation
- expression of chaperone GRP78 and stress sensor IRE1 ([3]; 10 ng/ml TGFβ2, iFECD and normal cells, level high especially in iFECD): induced
- percentage of annexin V positive apoptosis cells after stimulation [4]: 12.3±0.5%
- increase of aggresomes (fluorescence intensity) [5]: 1.11 fold
- percentage of annexin V positive apoptosis cells after stimulation ([1]; after TGFβ stimulation (19.4±1.4% prior to stimulation), p<0.01): 29.9±1.5%
- cell damage / floating cells caused by the stimulant [2]: damaged

Compound: CN[C@@H]1C[C@H]2O[C@@](C)([C@@H]1OC)n1c3ccccc3c3c4c(c5c6ccccc6n2c5c31)C(=O)NC4 [staurosporine]
- activation of caspase 9, caspase 3 and PARP [6]: activate

Compound: C/C=C(/C)C(=O)O[C@H]1C(C)=C2[C@H]([C@@H]1OC(=O)CCCCCCC)[C@@](C)(OC(C)=O)C[C@H](OC(=O)CCC)[C@@]1(O)[C@H]2OC(=O)[C@@]1(C)O [TG, thapsigargin]
- cell damage / floating cells caused by the stimulant [2]: large amount of floating cells
